Data from the kinase profiling compilation of Christmann-Franck et al. (2016).

Key:
Test in all cases: KINOMEscan competition binding
Conditions in all cases: compound 10.0 µM
ALK (human) = ALK (human) (UniProt Q9UM73)
CAMK2B (human) = CAMK2B (human) (UniProt Q13554)
CDK13 (human) = CDK13 (human) (UniProt Q14004)
CDK2 (human) = CDK2 (human) (UniProt P24941)
CDK9 (human) = CDK9 (human) (UniProt P50750)
CHUK (human) = CHUK (human) (UniProt O15111)
CLK1 (human) = CLK1 (human) (UniProt P49759)
CaMK1 (human) = CaMK1 (human) (UniProt Q14012)
[1] = tested on: EGFR (human), P00533 [G719S]
[2] = tested on: EGFR (human), P00533 [T790M]
EPHB2 (human) = EPHB2 (human) (UniProt P29323)
ERN1 (human) = ERN1 (human) (UniProt O75460)
Chain of ERN1 (human) (O75460 whole entry, looked up): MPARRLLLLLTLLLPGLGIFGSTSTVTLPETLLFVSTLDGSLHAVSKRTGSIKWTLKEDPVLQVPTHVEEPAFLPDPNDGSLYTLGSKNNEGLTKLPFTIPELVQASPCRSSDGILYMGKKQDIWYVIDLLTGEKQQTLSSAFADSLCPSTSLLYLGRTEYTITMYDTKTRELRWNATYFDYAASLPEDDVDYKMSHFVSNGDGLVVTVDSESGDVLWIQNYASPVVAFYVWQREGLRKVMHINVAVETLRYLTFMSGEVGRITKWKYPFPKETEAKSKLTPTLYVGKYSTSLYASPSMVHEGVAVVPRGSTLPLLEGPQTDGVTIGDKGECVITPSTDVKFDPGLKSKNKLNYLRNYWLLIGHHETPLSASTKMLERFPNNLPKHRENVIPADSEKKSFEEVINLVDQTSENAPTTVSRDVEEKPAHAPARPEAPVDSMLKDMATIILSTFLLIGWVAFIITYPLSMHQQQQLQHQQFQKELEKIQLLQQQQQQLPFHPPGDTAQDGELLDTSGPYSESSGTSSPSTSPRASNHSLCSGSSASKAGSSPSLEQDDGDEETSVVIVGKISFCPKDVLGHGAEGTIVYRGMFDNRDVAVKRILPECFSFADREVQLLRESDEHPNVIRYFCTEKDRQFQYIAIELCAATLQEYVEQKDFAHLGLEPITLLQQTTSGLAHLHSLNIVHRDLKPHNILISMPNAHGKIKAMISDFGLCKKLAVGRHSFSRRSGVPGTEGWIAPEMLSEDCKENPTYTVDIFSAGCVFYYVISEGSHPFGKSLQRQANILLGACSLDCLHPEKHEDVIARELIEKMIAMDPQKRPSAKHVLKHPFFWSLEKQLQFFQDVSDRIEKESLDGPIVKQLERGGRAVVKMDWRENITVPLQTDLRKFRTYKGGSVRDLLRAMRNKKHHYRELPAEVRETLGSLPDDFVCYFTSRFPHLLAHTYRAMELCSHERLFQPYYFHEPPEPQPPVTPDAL

FGFR1 (human) = FGFR1 (human) (UniProt P11362)
GSK3B (human) = GSK3B (human) (UniProt P49841)
IRAK4 (human) = IRAK4 (human) (UniProt Q9NWZ3)
[3] = tested on: KIT (human), P10721 [D816H]
LATS1 (human) = LATS1 (human) (UniProt O95835)
LRRK2 (human) = LRRK2 (human) (UniProt Q5S007)
LYN (human) = LYN (human) (UniProt P07948)
MAP2K7 (human) = MAP2K7 (human) (UniProt O14733)
Chain of MAP2K7 (human) (O14733 whole entry, looked up): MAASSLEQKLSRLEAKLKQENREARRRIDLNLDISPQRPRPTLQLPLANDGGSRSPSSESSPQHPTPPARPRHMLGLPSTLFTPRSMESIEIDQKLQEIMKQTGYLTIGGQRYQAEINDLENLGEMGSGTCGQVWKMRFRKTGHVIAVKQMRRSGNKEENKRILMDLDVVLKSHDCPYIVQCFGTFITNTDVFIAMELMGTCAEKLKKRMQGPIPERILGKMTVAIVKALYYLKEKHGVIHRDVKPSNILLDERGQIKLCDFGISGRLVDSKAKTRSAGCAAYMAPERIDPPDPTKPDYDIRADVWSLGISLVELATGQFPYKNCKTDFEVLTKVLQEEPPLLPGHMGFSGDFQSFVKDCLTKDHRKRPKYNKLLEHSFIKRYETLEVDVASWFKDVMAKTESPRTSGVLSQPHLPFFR

MAPK1 (human) = MAPK1 (human) (UniProt P28482)
Chain of MAPK1 (human) (P28482 whole entry, looked up): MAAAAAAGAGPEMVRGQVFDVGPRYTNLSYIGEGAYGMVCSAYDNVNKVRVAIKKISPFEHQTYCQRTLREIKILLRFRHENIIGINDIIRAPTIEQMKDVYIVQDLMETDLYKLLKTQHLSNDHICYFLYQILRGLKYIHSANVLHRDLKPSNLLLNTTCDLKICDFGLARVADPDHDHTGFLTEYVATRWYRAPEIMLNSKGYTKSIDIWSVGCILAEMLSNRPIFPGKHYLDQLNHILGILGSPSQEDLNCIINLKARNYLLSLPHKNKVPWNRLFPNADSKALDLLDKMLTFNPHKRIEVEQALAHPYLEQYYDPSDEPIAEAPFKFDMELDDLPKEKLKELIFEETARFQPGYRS

MAPK10 (human) = MAPK10 (human) (UniProt P53779)
MAPK14 (human) = MAPK14 (human) (UniProt Q16539)
Chain of MAPK14 (human) (Q16539 whole entry, looked up): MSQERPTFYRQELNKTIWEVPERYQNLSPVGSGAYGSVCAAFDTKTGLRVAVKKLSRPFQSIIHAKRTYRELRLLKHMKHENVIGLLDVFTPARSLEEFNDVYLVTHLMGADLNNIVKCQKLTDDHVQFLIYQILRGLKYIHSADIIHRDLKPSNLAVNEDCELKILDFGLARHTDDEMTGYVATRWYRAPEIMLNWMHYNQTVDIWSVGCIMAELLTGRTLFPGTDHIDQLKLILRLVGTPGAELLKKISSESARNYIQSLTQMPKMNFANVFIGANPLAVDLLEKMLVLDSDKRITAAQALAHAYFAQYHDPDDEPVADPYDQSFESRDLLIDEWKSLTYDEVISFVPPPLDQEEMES

MAPK9 (human) = MAPK9 (human) (UniProt P45984)
NTRK2 (human) = NTRK2 (human) (UniProt Q16620)
PIM1 (human) = PIM1 (human) (UniProt P11309)
Chain of PIM1 (human) (P11309 whole entry, looked up): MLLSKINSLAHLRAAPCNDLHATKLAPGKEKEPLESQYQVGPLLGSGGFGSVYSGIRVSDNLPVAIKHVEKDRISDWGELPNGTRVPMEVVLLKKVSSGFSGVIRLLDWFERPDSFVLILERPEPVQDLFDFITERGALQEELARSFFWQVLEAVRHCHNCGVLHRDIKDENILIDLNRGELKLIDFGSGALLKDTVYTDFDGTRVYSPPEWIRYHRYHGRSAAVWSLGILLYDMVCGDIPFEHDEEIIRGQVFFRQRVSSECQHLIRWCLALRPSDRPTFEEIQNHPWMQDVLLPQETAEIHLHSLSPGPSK

PLK2 (human) = PLK2 (human) (UniProt Q9NYY3)
Chain of PLK2 (human) (Q9NYY3 whole entry, looked up): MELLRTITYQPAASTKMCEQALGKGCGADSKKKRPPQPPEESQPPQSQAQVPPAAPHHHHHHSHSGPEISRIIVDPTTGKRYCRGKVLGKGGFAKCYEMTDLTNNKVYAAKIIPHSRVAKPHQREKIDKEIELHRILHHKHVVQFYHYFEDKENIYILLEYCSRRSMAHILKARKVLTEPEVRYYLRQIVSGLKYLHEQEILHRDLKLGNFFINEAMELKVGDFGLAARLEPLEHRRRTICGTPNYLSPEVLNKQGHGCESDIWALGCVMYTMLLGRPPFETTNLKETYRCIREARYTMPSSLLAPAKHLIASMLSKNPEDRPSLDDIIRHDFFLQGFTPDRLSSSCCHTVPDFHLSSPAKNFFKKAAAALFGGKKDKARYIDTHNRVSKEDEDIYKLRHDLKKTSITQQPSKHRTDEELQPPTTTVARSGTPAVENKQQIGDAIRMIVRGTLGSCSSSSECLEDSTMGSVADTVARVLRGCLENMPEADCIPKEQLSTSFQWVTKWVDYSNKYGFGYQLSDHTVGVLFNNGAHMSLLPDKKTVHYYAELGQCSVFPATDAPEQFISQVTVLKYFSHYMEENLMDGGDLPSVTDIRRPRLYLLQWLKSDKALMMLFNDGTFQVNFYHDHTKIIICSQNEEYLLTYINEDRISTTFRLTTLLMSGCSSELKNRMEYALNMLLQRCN

PRKCE (human) = PRKCE (human) (UniProt Q02156)
RAF1 (human) = RAF1 (human) (UniProt P04049)
[4] = tested on: RET (human), P07949 [M918T]
RIOK2 (human) = RIOK2 (human) (UniProt Q9BVS4)
RIOK3 (human) = RIOK3 (human) (UniProt O14730)
ROCK1 (human) = ROCK1 (human) (UniProt Q13464)
SRPK2 (human) = SRPK2 (human) (UniProt P78362)
STK10 (human) = STK10 (human) (UniProt O94804)
STK11 (human) = STK11 (human) (UniProt Q15831)
STK32A (human) = STK32A (human) (UniProt Q8WU08)
TAOK1 (human) = TAOK1 (human) (UniProt Q7L7X3)
TLK2 (human) = TLK2 (human) (UniProt Q86UE8)
[5] = biological target: TYK2 JH1 catalytic (human) (UniProt P29597)
Chain of TYK2 JH1 catalytic (human) (P29597 whole entry, looked up): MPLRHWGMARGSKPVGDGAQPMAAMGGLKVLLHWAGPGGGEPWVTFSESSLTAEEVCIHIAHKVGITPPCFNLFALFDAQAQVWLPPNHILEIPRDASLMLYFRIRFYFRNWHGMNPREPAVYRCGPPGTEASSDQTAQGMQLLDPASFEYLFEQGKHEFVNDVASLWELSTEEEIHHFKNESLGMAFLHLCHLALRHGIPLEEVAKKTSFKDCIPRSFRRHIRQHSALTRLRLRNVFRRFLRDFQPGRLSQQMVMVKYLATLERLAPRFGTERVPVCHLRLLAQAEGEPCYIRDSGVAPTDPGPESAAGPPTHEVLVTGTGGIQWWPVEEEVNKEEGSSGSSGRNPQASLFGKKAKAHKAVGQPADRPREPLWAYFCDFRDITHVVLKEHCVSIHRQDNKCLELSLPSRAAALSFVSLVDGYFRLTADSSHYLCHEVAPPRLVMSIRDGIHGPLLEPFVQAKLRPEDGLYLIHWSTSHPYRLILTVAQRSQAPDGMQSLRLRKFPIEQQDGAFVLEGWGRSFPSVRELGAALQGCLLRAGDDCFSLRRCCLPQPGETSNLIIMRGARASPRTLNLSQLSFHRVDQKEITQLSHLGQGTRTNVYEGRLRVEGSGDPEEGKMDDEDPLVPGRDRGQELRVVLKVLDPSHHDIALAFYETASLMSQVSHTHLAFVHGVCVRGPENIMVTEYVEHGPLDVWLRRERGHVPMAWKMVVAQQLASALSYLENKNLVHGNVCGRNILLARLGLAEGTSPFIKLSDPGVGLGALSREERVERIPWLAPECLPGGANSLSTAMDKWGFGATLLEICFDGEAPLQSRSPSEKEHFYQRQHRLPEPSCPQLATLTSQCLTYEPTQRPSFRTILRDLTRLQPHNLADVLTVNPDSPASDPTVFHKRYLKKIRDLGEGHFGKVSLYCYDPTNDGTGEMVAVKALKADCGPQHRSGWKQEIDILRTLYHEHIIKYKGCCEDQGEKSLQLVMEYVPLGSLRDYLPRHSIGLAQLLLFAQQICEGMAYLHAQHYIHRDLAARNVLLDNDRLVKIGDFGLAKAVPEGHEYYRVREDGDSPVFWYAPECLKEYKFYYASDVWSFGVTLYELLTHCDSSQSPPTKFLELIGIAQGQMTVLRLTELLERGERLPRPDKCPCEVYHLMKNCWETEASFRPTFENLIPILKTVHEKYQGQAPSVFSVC

ULK3 (human) = ULK3 (human) (UniProt Q6PHR2)
ZAP70 (human) = ZAP70 (human) (UniProt P43403)

Chain of CHUK (human) (O15111 whole entry, looked up): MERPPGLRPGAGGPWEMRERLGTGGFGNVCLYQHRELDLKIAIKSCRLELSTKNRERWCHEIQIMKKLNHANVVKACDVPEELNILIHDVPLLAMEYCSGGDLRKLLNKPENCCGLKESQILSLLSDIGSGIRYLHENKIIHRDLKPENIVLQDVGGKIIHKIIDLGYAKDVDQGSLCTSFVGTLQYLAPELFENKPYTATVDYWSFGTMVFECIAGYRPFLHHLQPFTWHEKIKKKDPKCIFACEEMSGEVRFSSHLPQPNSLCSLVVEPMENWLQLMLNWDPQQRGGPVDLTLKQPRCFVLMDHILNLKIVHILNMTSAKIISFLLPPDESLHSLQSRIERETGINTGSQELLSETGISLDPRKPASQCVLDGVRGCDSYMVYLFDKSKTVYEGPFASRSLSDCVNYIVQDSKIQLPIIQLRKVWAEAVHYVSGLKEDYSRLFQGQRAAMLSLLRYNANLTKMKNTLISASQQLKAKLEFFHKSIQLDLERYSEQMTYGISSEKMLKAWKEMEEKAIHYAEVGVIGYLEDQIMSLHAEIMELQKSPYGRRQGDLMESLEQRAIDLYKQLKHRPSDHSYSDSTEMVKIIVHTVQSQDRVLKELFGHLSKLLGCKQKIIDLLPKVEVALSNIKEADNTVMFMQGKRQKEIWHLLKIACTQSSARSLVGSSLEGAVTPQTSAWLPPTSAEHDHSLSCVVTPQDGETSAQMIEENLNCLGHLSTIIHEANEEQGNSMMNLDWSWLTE

Compound `Cc1cc([C@@H](C)Nc2ccccc2C(=O)O)c2nc(N3CCOCC3)cc(=O)n2c1` has a kinase still bound, per cent of control (ALK (human)) of 100%, a kinase still bound, per cent of control (CAMK2B (human)) of 89% and a kinase still bound, per cent of control (CDK13 (human)) of 100%. The kinase still bound, per cent of control (CDK2 (human)) was 64%, the kinase still bound, per cent of control (CDK9 (human)) was 89% and the kinase still bound, per cent of control (CHUK (human)) was 69%. The kinase still bound, per cent of control (CLK1 (human)) was 56%, the kinase still bound, per cent of control (CaMK1 (human)) was 94% and the kinase still bound, per cent of control [1] was 100%. For the same compound, the kinase still bound, per cent of control [2] was 100%, the kinase still bound, per cent of control (EPHB2 (human)) was 100% and the kinase still bound, per cent of control (ERN1 (human)) was 100%. The kinase still bound, per cent of control (FGFR1 (human)) was 97%, the kinase still bound, per cent of control (GSK3B (human)) was 100% and the kinase still bound, per cent of control (IRAK4 (human)) was 100%. For the same compound, the kinase still bound, per cent of control [3] was 93%, the kinase still bound, per cent of control (LATS1 (human)) was 60% and the kinase still bound, per cent of control (LRRK2 (human)) was 97%. The kinase still bound, per cent of control (LYN (human)) was 89%, the kinase still bound, per cent of control (MAP2K7 (human)) was 100% and the kinase still bound, per cent of control (MAPK1 (human)) was 100%. The kinase still bound, per cent of control (MAPK10 (human)) was 66%, the kinase still bound, per cent of control (MAPK14 (human)) was 100% and the kinase still bound, per cent of control (MAPK9 (human)) was 69%. The kinase still bound, per cent of control (NTRK2 (human)) was 81%, the kinase still bound, per cent of control (PIM1 (human)) was 100% and the kinase still bound, per cent of control (PLK2 (human)) was 100%. The kinase still bound, per cent of control (PRKCE (human)) was 100%, the kinase still bound, per cent of control (RAF1 (human)) was 97% and the kinase still bound, per cent of control [4] was 100%. For the same compound, the kinase still bound, per cent of control (RIOK2 (human)) was 35%, the kinase still bound, per cent of control (RIOK3 (human)) was 100% and the kinase still bound, per cent of control (ROCK1 (human)) was 90%. It also gave a kinase still bound, per cent of control (SRPK2 (human)) of 88%, a kinase still bound, per cent of control (STK10 (human)) of 71% and a kinase still bound, per cent of control (STK11 (human)) of 97%. The kinase still bound, per cent of control (STK32A (human)) was 100%, the kinase still bound, per cent of control (TAOK1 (human)) was 79% and the kinase still bound, per cent of control (TLK2 (human)) was 100%. It also gave a kinase still bound, per cent of control [5] of 100%, a kinase still bound, per cent of control (ULK3 (human)) of 100% and a kinase still bound, per cent of control (ZAP70 (human)) of 72%.
